Reference: ChEMBL document CHEMBL1151048, “Synthesis and antimicrobial activity of 5-thioabbeymycin: limitations of the iminothioether approach to carbinolamine-containing pyrrolobenzodiazepines” (1993)

What was measured:
Format in all cases: functional
Staphylococcus aureus [1] = assay: Minimum bactericidal concentration against Staphylococcus aureus; value ranges from 2-8 ug cm-3
Staphylococcus aureus [2] = assay: Minimum inhibitory concentration against Staphylococcus aureus; value ranges from 2-4 ug cm-3
Pseudomonas aeruginosa [3] = assay: Minimum bactericidal concentration against Pseudomonas aeruginosa; value ranges from 2-4 ug cm-3
Pseudomonas aeruginosa [4] = assay: Minimum inhibitory concentration against Pseudomonas aeruginosa; value ranges from 2-4 ug cm-3

O[C@H]1C[C@H]2C=Nc3ccccc3C(=S)N2C1
2 ug cm**-3: MBC (Staphylococcus aureus [1]) | MIC (Staphylococcus aureus [2]) | MBC (Pseudomonas aeruginosa [3]) | MIC (Pseudomonas aeruginosa [4])
